Laboratory results reported in PubChem BioAssay (NCI).
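Five concentrations, 48 hours, 96-well plates. TGI denotes the concentration required for complete inhibition of growth.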

Tests used:
Assay in all cases: DTP human tumour cell line panel, 48 h
786-0 renal = system: 786-0 renal
A498 renal = system: A498 renal
A549 NSCLC = system: A549 NSCLC
ACHN renal = system: ACHN renal
CAKI-1 renal = system: CAKI-1 renal
CCRF-CEM leukemia = system: CCRF-CEM leukemia
COLO 205 colon = system: COLO 205 colon
DU-145 prostate = system: DU-145 prostate
EKVX NSCLC = system: EKVX NSCLC
HCC-2998 colon = system: HCC-2998 colon
HCT-116 colon = system: HCT-116 colon
HCT-15 colon = system: HCT-15 colon
HL-60(TB) leukemia = system: HL-60(TB) leukemia
HOP-62 NSCLC = system: HOP-62 NSCLC
HOP-92 NSCLC = system: HOP-92 NSCLC
HS 578T breast = system: HS 578T breast
HT29 colon = system: HT29 colon
IGROV1 ovarian = system: IGROV1 ovarian
K-562 leukemia = system: K-562 leukemia
KM12 colon = system: KM12 colon
LOX IMVI melanoma = system: LOX IMVI melanoma
M14 melanoma = system: M14 melanoma
MALME-3M melanoma = system: MALME-3M melanoma
MCF7 breast = system: MCF7 breast
MDA-MB-231 breast = system: MDA-MB-231 breast
MDA-MB-435 = system: MDA-MB-435
MDA-N = system: MDA-N
MOLT-4 leukemia = system: MOLT-4 leukemia
NCI-H226 lung = system: NCI-H226 lung
NCI-H23 lung = system: NCI-H23 lung
NCI-H460 lung = system: NCI-H460 lung
NCI-H522 lung = system: NCI-H522 lung
NCI/ADR-RES ovarian = system: NCI/ADR-RES ovarian
OVCAR-3 ovarian = system: OVCAR-3 ovarian
OVCAR-4 ovarian = system: OVCAR-4 ovarian
OVCAR-8 ovarian = system: OVCAR-8 ovarian
PC-3 prostate = system: PC-3 prostate
RPMI-8226 leukemia = system: RPMI-8226 leukemia
RXF 393 renal = system: RXF 393 renal
SF-268 CNS = system: SF-268 CNS
SF-295 CNS = system: SF-295 CNS
SF-539 CNS = system: SF-539 CNS
SK-MEL-2 melanoma = system: SK-MEL-2 melanoma
SK-MEL-28 melanoma = system: SK-MEL-28 melanoma
SK-MEL-5 melanoma = system: SK-MEL-5 melanoma
SK-OV-3 ovarian = system: SK-OV-3 ovarian
SN12C renal = system: SN12C renal
SNB-19 CNS = system: SNB-19 CNS
SNB-75 CNS = system: SNB-75 CNS
SR leukemia = system: SR leukemia
SW-620 colon = system: SW-620 colon
T-47D breast = system: T-47D breast
TK-10 renal = system: TK-10 renal
U251 CNS = system: U251 CNS
UACC-257 melanoma = system: UACC-257 melanoma
UACC-62 melanoma = system: UACC-62 melanoma
UO-31 renal = system: UO-31 renal

Measured: TGI

CC(=O)CC(O)(C(F)(F)Cl)C(F)(F)Cl
> 10 µM: all assays above
